According to paper PMC11019550, “Potent Inhibition of E. coli DXP Synthase by a gem-Diaryl Bisubstrate Analog” (ACS Infectious Diseases, 2024):

Key:
R99A EcDXPS [1] = target: T1, R99A EcDXPS (Escherichia coli, UniProt P77488, R99A); assay: Circular dichroism titration (PLThDP formation, apparent KD) on R99A EcDXPS; assay type: binding
T1 construct: made in house
Procedure: (§1) CD titrations of 8 and 10 onto WT, R99A, and R478A EcDXPS variants were conducted at 25 °C under aerobic conditions in 1.5 mL solutions containing 30 μM EcDXPS in 50 mM HEPES pH 8, 100 mM NaCl, 1 mM MgCl2, and 0.2 mM ThDP. Scans were obtained from 280 to 400 nm with a 0.5 s averaging time and 1 nm step following a titration of inhibitor (8: 0.25–30 μM on WT, 0.5–30 μM on R99A and R478A; 10 2.5–30 μM on WT, R99A, and R478A), with a 5 min preincubation of inhibitor with DXPS prior to scanning. […] The CD signals at 294 nm determined from the difference spectra obtained by subtracting the signal of E-ThDP at 294 nm were plotted as a function of [inhibitor] and fit to (1) the quadratic equation described in eq 2 (8 on WT DXPS), where E is the concentration of DXPS taking into account stoichiometric binding and CDmax is the maximal CD signal, or (2) a one-site specific binding curve (all other experiments) using GraphPad Prism Version 9 to calculate an apparent KD. Experiments were conducted in triplicate and the standard error was calculated. [drawing 2] 2
(§2) At the conclusion of the titration described above, the CD signal at 313 nm (previously characterized for LThDP) was recorded. Pyruvate (1 mM) was then added to the mixture, and a CD scan of the resulting solution was conducted as described above, to detect shifts in the CD spectrum that may correlate to LThDP formation. Experiments were conducted in triplicate.

EcDXPS = target: T2, EcDXPS (Escherichia coli, UniProt P77488); assay: DXPS quaternary structure by native PAGE and analytical gel filtration
T2 construct: made in house
Procedure: EcDXPS (20 μM) in buffer (2 mM MgCl2, 5 mM NaCl, 1 mM ThDP, 100 mM HEPES pH 8) was preincubated with 8 ([…]) or no inhibitor for 30 min at 25 °C. Samples were then diluted 2-fold with 2× loading dye (100 mM Tris HCl pH 8, 20% glycerol, 200 mM dithiothreitol (DTT), 0.01% bromophenol blue). Samples (15 μL) were then loaded on a 7.5% PAGE gel. Gel electrophoresis was conducted at 4 °C for 30 min at 120 V, followed by 3 h at 150 V. Protein bands were stained with Protostain Blue. Experiments were performed in triplicate.
Analytical gel filtration was performed on an AKTA-GO FPLC system held at 4 °C fitted with a Cytiva Superdex 200 Increase 5/150 GL column. A 200 μL solution containing 29 μM EcDXPS in 25 mM HEPES, pH 8, 100 mM NaCl, 1 mM MgCl2, 1% glycerol, 10 μM ThDP, and 29 μM 8 or no inhibitor was centrifuged at 13,000 rpm for 10 min to remove particulates. The resulting supernatant was loaded into a 10 μL loop attached to the FPLC via gastight syringes. […] DXPS was analyzed by isocratic elution from the column at a flow of 0.15 mL/min with 1.5 column volumes (4.5 mL). The dimer/tetramer ratio was calculated from the peak area (mL mAu) of the dimer (1.7 mL retention) peak divided by the peak area (mL mAu) of the tetramer (1.4 mL retention) peak. […]

R99A EcDXPS [2] = target: T1, R99A EcDXPS; assay: IC50 determination for 8 on R99A EcDXPS variant; assay type: biochemical; conditions: 400 nM DXPS, 2 × Km pyruvate, 10 × Km D-GAP
Procedure: (§3) EcDXPS and IspC were preincubated with inhibitor for 10 min at 25 °C in assay reaction buffer (100 mM HEPES pH 8, 2 mM MgCl2, 5 mM NaCl, 1 mM ThDP, and 200 μM NADPH). Enzyme concentrations for variants were as follows: 200 nM DXPS (wildtype EcDXPS) and 4 μM IspC; 400 nM DXPS (R99A and R478A EcDXPS) and 6 μM IspC. The reaction was initiated by the addition of substrates at final concentrations of 2 × Km pyruvate and 10 × KmD-GAP. NADPH consumption was monitored at 340 nm for 10 min at 25 °C. The initial rate of NADPH consumption was used to determine the initial rate of DXP formation catalyzed by DXPS. Experiments were performed in triplicate and error bars represented standard error.

R478A EcDXPS [3] = target: T3, R478A EcDXPS (Escherichia coli, UniProt P77488, R478A); assay: IC50 determination for 8 on R478A EcDXPS variant; assay type: biochemical; conditions: 400 nM DXPS, 2 × Km pyruvate, 10 × Km D-GAP
T3 construct: made in house
Procedure: as §3

EcR99A DXPS = target: T4, EcR99A DXPS (Escherichia coli, UniProt P77488, R99A); assay: Time-dependent inhibition, reaction progress curves on EcR99A; assay type: biochemical; conditions: 8 at 700 nM or 200 μM
T4 construct: made in house
Procedure: Figure S8. Replicates of reaction progress curves for DXP formation on EcR99A in the presence or absence of 8. Reactions were initiated by simultaneous addition of substrates (780 µM pyruvate and 2400 µΜ D-GAP) in the presence or absence of 8 (700 nM or 200 µM) at 25 °C. Reaction progress was measured using the DXPS-IspC coupled assay. Experiments were performed in […]
Figure S9. Representative CD traces illustrating behavior of the CD signal corresponding to PLThDP formed from 8 on WT and EcDXPS variants. A) CD traces showing lack of a significant shift in CD signal following addition of pyruvate (1 mM, red trace) to E-PLThDP formed from 8 (blue trace) on WT B) Observed shift toward a LThDP-like CD signal following addition EcDXPS. of pyruvate to E-PLThDP formed from 8 on EcR99A DXPS. C) Observed shift toward a LThDP-like CD signal following addition of pyruvate to E-PLThDP formed from 8 on EcR478A DXPS. […]

R478A EcDXPS [4] = target: T3, R478A EcDXPS; assay: Circular dichroism titration (PLThDP formation, apparent KD) on R478A EcDXPS; assay type: binding
Procedure: as §1, §2

CC(=O)P(=O)(O)OCCc1cn(C(Cc2ccccc2)(Cc2ccccc2)C(=O)O)nn1 [Compound 8]
Kd (R99A EcDXPS [1]): 19 ± 3 µM
change in PLThDP CD signal upon addition of pyruvate (R99A EcDXPS [1]; R99A-PLThDP complex): shift in the CD profile toward the characteristic LThDP signal
effect on dimer/tetramer ratio (analytical gel filtration) (EcDXPS; 29 μM EcDXPS, 29 μM 8): small but statistically significant decrease in the dimer/tetramer ratio
effect on EcDXPS oligomeric state (native PAGE) (EcDXPS; EcDXPS 20 μM, incubation with 8): induce the formation of higher-order enzyme oligomers
IC50 (R99A EcDXPS [2]): 3.007 ± 0.015 µM
IC50 (R478A EcDXPS [3]): 1.01 ± 0.381 µM
time dependence of inhibition (progress curve for DXP formation) (EcR99A DXPS): loss of time-dependent behavior
Kd (R478A EcDXPS [4]): 11 ± 4 µM
change in PLThDP CD signal upon addition of pyruvate (R478A EcDXPS [4]; R478A-PLThDP complex): shift in the CD profile toward the characteristic LThDP signal
